Experimental data reported in patent US20160200698A1, “VORTIOXETINE SALT AND CRYSTAL THEREOF, THEIR PREPARATION METHOD, PHARMACEUTICAL COMPOSITIONS AND USAGE” (HANGZHOU PUSHAI PHARMACEUTICAL TECHNOLOGY CO., LTD, priority 2013, published 2016).
Structures can show the parent of a compound that is named as a salt. One block for each molecule: values may come before it.

Assays:
Type in all cases: physicochemical
[1] = Inventors' studies of the known crystalline forms of vortioxetine hydrobromide of WO2007/144005A1; settings: for Stability under high-temperature conditions: hydrobromide
Description: In studies, the inventors of the present invention found out that the multiple crystalline forms of vortioxetine hydrobromide disclosed in WO2007/144005A1 have the following disadvantages: […]

[2] = Stability competition test (competitive slurry, XRPD analysis); settings: for Stability Competition Test: crystalline form after competitive slurry (XRPD): ethanol or water, equal quantity of both forms slurried 7 days; for Stability competition test: crystalline form after slurry (summary statement): slurried in water or ethanol, temperature not stated
Description: Stability competition test: An equal quantity (250 mg) of the crystalline vortioxetine hemihydrobromide form of the present invention prepared in example 4 and the β Form of vortioxetine hydrobromide prepared in preparation example 2 were respectively added to 3 mL of ethanol or water to produce suspensions. No solvate was formed in ethanol or water. The suspensions were slurried for 7 days at room temperature or at 60° C., and then XRPD characterization analyses were performed.

[3] = Dissolution of tablets made by the method of example 105 (paddle method, water); settings: 900 mL water, 37° C., paddle 50 r/min
Description: The crystalline form of vortioxetine hemihydrobromide of the present invention, the β Form of vortioxetine hydrobromide prepared in preparation example 2 and the β Form of vortioxetine hydrobromide containing 20% of the crystalline form of vortioxetine hemihydrobromide of the present invention were tabletted by the method in example 105 and then subjected to phase stability comparison. Dissolution was determined by reference to the dissolution conditions of Benorilate Tablets described in 2010 Chinese Pharmacopoeia. The paddle method was used with the paddle rotation speed at 50 r/min 900 mL of water was the dissolution medium. The temperature was 37° C. Take 3 mL of the dissolution medium for sampling at 2, 10, 20, 40 and 60 min respectively. Each time after sampling, 3 mL of water was added back to dissolution medium to supplement the volume. The concentration of the dissolution medium at each time point was measured by HPLC, and the dissolution profile was plotted.

[4] = Hygroscopicity comparison by DVS isothermal sorption curve; settings: 20%-80% RH range
Description: Dynamic vapor sorption (DVS) data were collected using TA Instruments Q5000 TGA. The instrument control software was Thermal Advantage, and the analytical software was Universal Analysis. Usually, 1-10 mg of the sample was placed in a platinum pan and the weight change of the sample during experiments was recorded. The relative humidity was usually programmed to change from 20% to 80% and then back to 20%, and an isothermal sorption curve could be generated. Depending on specific situations, different sorption and desorption procedures might be used.
Hygroscopicity comparison: DVS isothermal sorption curves were used, and weight changes within the 20%-80% RH range were measured.

[5] = Dissolution comparison of sustained-release tablets made by the method of example 141; settings: water, 37° C., paddle 50 r/min
Description: The crystalline form of vortioxetine hemihydrobromide of the present invention and the β Form of vortioxetine hydrobromide prepared in preparation example 2 were tabletted by the method of example 141 and then subjected to dissolution comparison. Water was used as the dissolution medium. Parameter setting of the dissolution tester: The temperature was 37° C. The rotate speed of the stirring paddle was 50 r/min Take 3 ml of the dissolution medium out at 0.5, 1, 2, 6 and 12 hours respectively. Each time after sampling, 3 mL of water was added back to the dissolution medium to supplement the volume. The concentration of the dissolution medium at each time point was determined by HPLC.

[6] = Storage of the crystalline form in desiccators at controlled humidity; settings: desiccators at 10% RH-90% RH, room temperature, 4 months
Description: It is more temperature and humidity robust and is less likely to have content uniformity and stability issues during pharmaceutical production and storage, thus reduces the risk of inefficacy and safety issue caused thereby and improves dosing accuracy.

[7] = listed as the known β Form of vortioxetine hydrobromide, hydrobromide
[8] = sampling time 2 min, hydrobromide
[9] = sampling time 10 min, hydrobromide
[10] = sampling time 20 min, hydrobromide
[11] = sampling time 40 min, hydrobromide
[12] = sampling time 0.5 hours, hydrobromide
[13] = sampling time 1 hour, hydrobromide
[14] = sampling time 2 hours, hydrobromide
[15] = sampling time 6 hours, hydrobromide
[16] = sampling time 12 hours, hydrobromide
[17] = sampling time 2 min, hemihydrobromide
[18] = sampling time 10 min, hemihydrobromide
[19] = sampling time 20 min, hemihydrobromide
[20] = sampling time 40 min, hemihydrobromide
[21] = sampling time 0.5 hours, hemihydrobromide
[22] = sampling time 1 hour, hemihydrobromide
[23] = sampling time 2 hours, hemihydrobromide
[24] = sampling time 6 hours, hemihydrobromide
[25] = sampling time 12 hours, hemihydrobromide

Structure (SMILES): Cc1ccc(Sc2ccccc2N2CCNCC2)c(C)c1 [γ Form of vortioxetine hydrobromide, vortioxetine hydrobromide]
Stability (general finding) [1]: very unstable
Hygroscopicity ([1]; low-humidity conditions): 2.0%

Structure (SMILES): Cc1ccc(Sc2ccccc2N2CCNCC2)c(C)c1 [vortioxetine hemihydrobromide]
Stability Competition Test: crystalline form after competitive slurry (XRPD) ([2]; 60° C., listed as the vortioxetine hemihydrobromide crystalline form of the present invention, hemihydrobromide): present invention kept unchanged”
Stability Competition Test: crystalline form after competitive slurry (XRPD) ([2]; room temperature, listed as the vortioxetine hemihydrobromide crystalline form of the present invention, hemihydrobromide): present invention kept unchanged”
Stability competition test: crystalline form after slurry (summary statement) ([2]; hemihydrobromide): keeping its crystalline form unchanged
Concentration [3, 17]: 2270 ng/mL
Cumulative dissolution [3, 17]: 8.2%
Concentration [3, 18]: 4320 ng/mL
Cumulative dissolution [3, 18]: 15.5%
Concentration [3, 19]: 7720 ng/mL
Cumulative dissolution [3, 19]: 27.7%
Concentration [3, 20]: 11330 ng/mL
Cumulative dissolution [3, 20]: 52.4%
Cumulative dissolution ([3]; sampling time 60 min): 100.0%
Concentration ([3]; sampling time 60 min, hemihydrobromide): 27860 ng/mL
Hygroscopicity Comparison (weight change) ([4]; listed as Example 4, hemihydrobromide): 0.28%
Hygroscopicity Comparison (weight change) ([4]; listed as the vortioxetine hemihydrobromide crystalline form of the present invention, hemihydrobromide): 0.28%
Concentration [5, 21]: 2250 ng/mL
Cumulative dissolution [5, 21]: 8.1%
Concentration [5, 22]: 3980 ng/mL
Cumulative dissolution [5, 22]: 14.3%
Concentration [5, 23]: 7650 ng/mL
Cumulative dissolution [5, 23]: 27.4%
Concentration [5, 24]: 12640 ng/mL
Cumulative dissolution [5, 24]: 58.5%
Concentration [5, 25]: 26330 ng/mL
Cumulative dissolution [5, 25]: 94.5%

Structure (SMILES): Cc1ccc(Sc2ccccc2N2CCNCC2)c(C)c1 [α Form of vortioxetine hydrobromide, vortioxetine hydrobromide]
Crystalline form stability at room temperature ([1]; room temperature): transformed to the β Form of vortioxetine hydrobromide

The next lines start with results.

Stability under high-temperature conditions [1]: lost water
Structure (SMILES): Cc1ccc(Sc2ccccc2N2CCNCC2)c(C)c1 [hydrate of vortioxetine hydrobromide, vortioxetine hydrobromide]

Stability under high-humidity conditions ([1]; high-humidity conditions): transformed to hydrate
Stability under high-temperature conditions [1]: lost ethyl acetate
Structure (SMILES): Cc1ccc(Sc2ccccc2N2CCNCC2)c(C)c1 [ethyl acetate solvate of vortioxetine hydrobromide]

Concentration [3, 8]: 13120 ng/mL
Cumulative dissolution [3, 8]: 40.1%
Concentration [3, 9]: 28050 ng/mL
Cumulative dissolution [3, 9]: 85.8%
Concentration [3, 10]: 30020 ng/mL
Cumulative dissolution [3, 10]: 91.8%
Concentration [3, 11]: 31660 ng/mL
Cumulative dissolution [3, 11]: 96.8%
Concentration ([3]; sampling time 60 min, hydrobromide): 33420 ng/mL
Hygroscopicity Comparison (weight change) [4, 7]: 0.60%
Concentration [5, 12]: 16370 ng/mL
Cumulative dissolution [5, 12]: 50.0%
Concentration [5, 13]: 29710 ng/mL
Cumulative dissolution [5, 13]: 90.9%
Concentration [5, 14]: 30810 ng/mL
Cumulative dissolution [5, 14]: 94.2%
Concentration [5, 15]: 31560 ng/mL
Cumulative dissolution [5, 15]: 96.5%
Concentration [5, 16]: 33420 ng/mL
Cumulative dissolution [5, 16]: 100.0%
Structure (SMILES): Cc1ccc(Sc2ccccc2N2CCNCC2)c(C)c1 [the β Form of vortioxetine hydrobromide, 1-[2-(2,4-dimethylphenylsulfanyl)phenyl]piperazine hydrobromide]
Stability Competition Test: crystalline form after competitive slurry (XRPD) ([2]; 60° C., listed as the known β Form of vortioxetine hydrobromide, hydrobromide): completely transformed into the vortioxetine hemihydrobromide crystalline form of the present invention
Stability Competition Test: crystalline form after competitive slurry (XRPD) ([2]; room temperature, listed as the known β Form of vortioxetine hydrobromide, hydrobromide): completely transformed into the vortioxetine hemihydrobromide crystalline form of the present invention
Stability competition test: crystalline form after slurry (summary statement) ([2]; hydrobromide): failed to maintain its original crystalline form and transformed to the vortioxetine hemihydrobromide crystalline form of the present invention
Stability competition test: crystalline form after slurry (summary statement) [2, 7]: completely transformed to the crystalline vortioxetine hemihydrobromide of the present invention
Stability competition test: crystalline form after slurry (summary statement) ([2]; listed as β Form of vortioxetine hydrobromide, hydrobromide): failed to maintain its original crystalline form

Crystalline form after storage [6]: remained unchanged
Structure (SMILES): Cc1ccc(Sc2ccccc2N2CCNCC2)c(C)c1 [vortioxetine hydrobromide isopropanol solvate]
